# Key:
# Akt PH domain = target: T1, Akt PH domain (Homo sapiens, UniProt P31749); experiment: PH domain translocation assay, GFP-fused Akt PH domain; format: cell-based; conditions: 100 μM, 2 hr, PDGF stimulation
# T1 construct: Akt PH domain-GFP, VAV2-GFP and VAV3-GFP vectors were generous gifts of Dr. Joanne Brugge; expressed in transfected cells
# Method: Cells were transfected with the corresponding GFP-fusion vectors, serum starved overnight, and incubated with 100 μM PITs or PIT-1is for 2 hr, followed by stimulation with 100 ng/ml PDGF or 250 ng/ml PMA for 5 min. The translocation was analyzed using fluorescent microscope and was quantitated by counting the number of cells with translocated PH domains in five random fields.
# (§1) To begin characterizing cellular activity of PITs, a PH domain translocation assay was performed, measuring PIP3-induced association of GFP-fused PH domains with the plasma membrane. This method provides useful means for monitoring status of the PH domain/PIP3 binding in the intact cells. Varnai P et al. (1999) J Biol Chem 274:10983-9. Several PH-domain-containing proteins, which are known to bind PIP3 specifically and efficiently, were examined. […] Oikawa T et al. (2004) Nat Cell Biol 6:420-6.
# VAV2 = target: T2, VAV2 (Homo sapiens, UniProt P52735); experiment: plasma membrane translocation assay, VAV2-GFP; format: cell-based; conditions: PDGF stimulation
# T2 construct: expressed in transfected cells; host or cells: SUM159
# Method: as §1
# [1] = tested on: multiple cancer cell lines; experiment: cancer cell viability (MTS or ATP assay), multiple cancer cell lines; format: cell-based; conditions: for viability of multiple cancer cell lines: B16, Jurkat, Lewis lung carcinoma, A549, 4T1, SUM-159, MDA-MB-231, MTS or ATP assay
# Method: Different cancer cell lines U87MG, SUM 159, A549, and MDA-MB-231 were incubated with the indicated concentrations of PIT-1 (12.5-100 μM) for 48 hr. Cell viability was determined using ATP assay.
# Based on the critical role of PIP3-dependent Akt signaling in the regulation of cell survival, the effect of PIT-1 on the cancer cell viability was tested. Cancer cells were seeded into 96-well plates (white plates for ATP assay; black plates for fluorescent assay; clear plates for MTS assay) at the density of 5-10×10^3 cells per well in 100 μl of the appropriate media. Compounds were added at a series of concentrations and incubated for different times. For the ATP assay, a luminescence-based commercial kit (CellTiter-Glo, Promega, Madison, Wis.) was used. Thirty microliters of cell lysis/ATP detection reagent was added to each well, mixed for 10 min at room temperature, and the luminescence was measured using a Wallac Victor 3 plate reader (Perkin-Elmer, Wellesley, Mass.). For the MTS assay, a CellTiter 96 AQueous Non-Radioactive Cell Proliferation Assay Kit (Promega, Madison, Wis., USA) was used. Twenty microliters of the combined MTS/PMS solution was added into each well, incubated for 4 hr at 37° C., and the absorbance at 490 nm was measured using a Wallac Victor 3 plate reader. For the Sytox cell death assay, measuring loss of plasma membrane integrity, cells were incubated with 1 μM Sytox Green reagent (Molecular Probes, Eugene, Oreg.) for 30 min at 37° C. and the fluorescence intensity was measured using Wallac Victor 3 plate reader with excitation at 485 nm and emission at 545 nm. Next, 5 μl of 20% (v/v) Triton X-100 solution was added to each well and incubated for 1 hr at 37° C., and the signal was measured again. The ratio of values (percentage of dead cells in each well) before and after Triton X-100 treatment was calculated and normalized to the relevant controls not subjected to the cytotoxic stimuli. IC50 values were determined using Origin6 software (MicroCal, LLC, Northampton, Mass.).
# [2] = tested on: SV40-transformed mouse adult lung fibroblasts; experiment: loss of viability, Akt1-expressing vs Akt1-3 triple knockout lung fibroblasts; format: cell-based; conditions: P<0.01
# Text: Shaughnessy J D (2008) Nature 454:172-3; Weinstein I G (2002) Science 297:63-4. Therefore, the possibility that PIT-1 may cause preferential cell death in the cells containing elevated PIP3 levels was examined. […] Li D M et al. (1998) Proc Natl Acad Sci USA 95:15406-11. […] This observation is consistent with the notion that PTEN-deficient cancer cells become overly dependent on PIP3 signaling and, therefore, are hypersensitive to disruption of this pathway compared to wild-type PTEN-expressing cells. Neshat M S et al. (2001) Proc Natl Acad Sci USA 98:10314-9.
# [3] = tested on: Bax/Bak double knockout mouse embryonic fibroblasts; experiment: cell killing in Bax/Bak double knockout vs wild-type cells; format: cell-based
# Method: Bax/Bak double knockout mouse embryonic fibroblasts (Wei M C et al. (2001) Science 292:727-30) and matched wild-type cells were a generous gift of Dr. Stanley Korsmeyer (Dana-Farber Cancer Center). B16-F10, U87MG, 4T1, A549, MDA-MB-231 and fibroblast cells were cultured in DMEM medium with 10% fetal bovine serum (FBS). SUM159 was maintained in Ham's F-12 medium with 5% FBS, 5 μg/ml insulin, and 1 μg/ml hydrocortisone. HUVEC cells were cultured in M199 medium with 20% FBS, 20 μg/ml ECGS, and 50 μg/ml heparin. All media were supplemented with 100 units/ml penicillin, 100 μg/ml streptomycin, and 2 mM glutamine. All cells were cultured in a humidified atmosphere of 95% air and 5% CO2 at 37° C.
# SUM159 cells [4] = experiment: actin polymerization and ruffling/lamellipodia formation in SUM159 cells; format: cell-based, human; conditions: 25, 50, 100 μM PITs or 100 μM PIT-1is, 8 hr; PDGF 15 min
# Method: In one set of experiments, the ability of PITs to inhibit actin polymerization and ruffling/lamellipodia formation was examined in SUM159 cells. Cells were serum starved and treated with PITs (25, 50 100 μM) or PIT-1is (100 μM) for 8 hr, followed by PDGF (100 ng/ml) stimulation for 15 min. Cells were fixed and stained with TRITC-phalloidin to visualize actin fibers, followed by fluorescent microscopy analysis. The number of cells with ruffles/lamellipodia was counted in five random fields.
# SUM159 cells [5] = experiment: cell polarization in wounded SUM159 monolayers; format: cell-based, human; conditions: 100 μM, 2 hr
# Method: In order to measure cell polarization, wounds were generated in SUM159 cell monolayers, followed by serum starvation and treatment with 100 μM PIT-1, PIT-2, PIT-1i-1, or PIT-1i-2 for 2 hr. Cells were stimulated for 15 min with 100 ng/ml PDGF, fixed and stained with TRITC-phalloidin for F-actin (red), acetylated tubulin antibody (green) for microtubule organization center (MTOC), and Hoechst for nuclei (blue). Cell polarization was evaluated by analysis of the relative location of the MTOC and nucleus. […] The number of polarized cells was counted in five random fields under fluorescent microscope.
# [6] = tested on: SUM159 cells transfected with VAV2 or WAVE2; experiment: wound healing migration of VAV- or WAVE-overexpressing SUM159 cells; format: cell-based, human; conditions: 100 μM, PDGF, 8 hr
# Method: SUM159 cells were transfected with VAV2 or WAVE2. Scratch wound was generated in cell monolayer, followed by treatment with PIT-1 (100 μM) in the presence of PDGF (100 ng/ml) stimulation for 8 hr. The inhibitory effect of PITs on VAV- or WAVE-induced cell migration was calculated according to the width of wound. The width of wounded cell monolayers was measured in five random fields.
# [7] = solubility / precipitation; format: physicochemical
# Text: This method has been reported to be efficient for in vivo targeting of cancer cells by other poorly soluble anti-cancer drugs, such as m-porphyrin, tamoxifen, and taxol. Gao Z et al. (2003) J Drug Target 11:87-92; Torchilin V P et al. (2003) Proc Natl Acad Sci USA 100:6039-44.
# The size of the DM-PIT-1-loaded micelles was about 15 nm with a narrow size distribution.
# T2 sequence (P52735 whole entry, species assumed): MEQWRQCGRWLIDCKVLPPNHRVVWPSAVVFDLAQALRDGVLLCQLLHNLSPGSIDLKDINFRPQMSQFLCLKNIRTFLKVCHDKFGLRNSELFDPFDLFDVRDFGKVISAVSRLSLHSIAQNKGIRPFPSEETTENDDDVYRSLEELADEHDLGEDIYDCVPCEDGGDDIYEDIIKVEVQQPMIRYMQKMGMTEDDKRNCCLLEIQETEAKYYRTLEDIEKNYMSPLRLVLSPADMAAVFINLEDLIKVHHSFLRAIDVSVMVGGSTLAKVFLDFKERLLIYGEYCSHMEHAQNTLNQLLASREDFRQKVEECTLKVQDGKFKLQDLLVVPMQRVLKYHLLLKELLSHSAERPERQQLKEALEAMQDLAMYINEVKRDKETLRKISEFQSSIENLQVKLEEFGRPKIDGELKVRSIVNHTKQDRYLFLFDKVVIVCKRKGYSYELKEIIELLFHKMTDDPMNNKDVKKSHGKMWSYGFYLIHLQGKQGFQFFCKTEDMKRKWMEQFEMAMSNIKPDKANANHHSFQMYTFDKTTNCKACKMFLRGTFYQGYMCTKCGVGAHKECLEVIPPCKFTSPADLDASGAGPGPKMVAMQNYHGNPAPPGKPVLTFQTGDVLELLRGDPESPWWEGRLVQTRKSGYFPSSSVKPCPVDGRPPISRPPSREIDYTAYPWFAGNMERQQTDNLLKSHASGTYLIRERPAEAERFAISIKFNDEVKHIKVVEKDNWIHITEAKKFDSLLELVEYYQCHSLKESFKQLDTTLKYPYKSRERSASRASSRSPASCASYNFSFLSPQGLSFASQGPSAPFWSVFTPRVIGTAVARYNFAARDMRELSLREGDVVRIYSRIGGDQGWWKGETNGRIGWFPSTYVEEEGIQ
# T1 sequence (P31749 5-108 limits assumed): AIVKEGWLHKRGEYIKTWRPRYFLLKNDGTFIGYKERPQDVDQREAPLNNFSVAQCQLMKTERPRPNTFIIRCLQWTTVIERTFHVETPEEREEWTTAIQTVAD
Compound,inhibition of translocation of Akt PH domain to the plasma membrane (Akt PH domain),inhibition of translocation of VAV2 to the plasma membrane (VAV2),viability of multiple cancer cell lines [1],loss of viability in Akt1-expressing fibroblasts compared to Akt1-3 triple knockout cells [2],killing of Bax/Bak double knockout cells compared with wild-type cells [3],PDGF-induced membrane ruffling in SUM159 cells (SUM159 cells [4]),"cell polarization and lamellipodia formation induced by PDGF, wound healing model (SUM159 cells [5])",inhibition of cell migration in VAV- and WAVE-overexpressing cells compared to control cells [6],aqueous solubility [7],"viability of U87MG, SUM 159, A549 and MDA-MB-231 cells ([1]; 12.5-100 μM, 48 hr, ATP assay)"
O=C1NC(=S)S/C1=C\c1cc(O)c([N+](=O)[O-])cc1Cc1ccccc1 [PIT-2],significantly inhibited,significantly inhibited,reduced viability,more pronounced,reduced in Bax/Bak double knockout cells,efficiently inhibited,effective at preventing cell polarization,larger degree of inhibition,limited aqueous solubility,–
O=C(NC(=S)Nc1cc([N+](=O)[O-])cc(Cl)c1O)c1ccccc1 [PIT-1],significantly inhibited,significantly inhibited,reduced viability,more pronounced,reduced in Bax/Bak double knockout cells,efficiently inhibited,effective at preventing cell polarization,larger degree of inhibition,limited aqueous solubility,reduces viability
